The values that follow come from patent publication US20230167121A1, “SUBSTITUTED {1,2,4,} TRIAZOLO{1,5-A} PYRIMIDINE COMPOUNDS AND USE IN STABILIZING MICROTUBULES” (THE TRUSTEES OF THE UNIVERSITY OF PENNSYLVANIA, priority 2020, published 2023).

“And” between values parts separate entries of the source, which are not always exact repeats. Identical values can stand only once. Like-named read-outs stand apart in the source and are kept apart here.

One data set has as its system total α-tubulin. The data set is described as follows: cell-based assay of MT-stabilization: total α-tubulin in QBI293 cell lysates by ELISA. The following applies: QB1293 cells. How it is done: (§1) All test compounds were evaluated in a previously described cell-based assay of MT-stabilization (see Kovalevich, J., et al. (2016) Characterization of Brain-Penetrant Pyrimidine-Containing Molecules with Differential Microtubule-Stabilizing Activities Developed as Potential Therapeutic Agents for Alzheimer's Disease and Related Tauopathies. J Pharmacol Exp Ther 357, 432-450, incorporated herein by reference), in which compound-dependent changes in tubulin polymerization and total tubulin levels were determined after 4 h of incubation of QBI293 cells with 1 and 10 μM compound via quantification of acetylated α-tubulin and total tubulin in cell lysates by ELISA.
(§2) Novel C6 nitrile- and alkyne-substituted triazolopyrimidine examples that have improved in vitro activity relative to previously described examples, with the general structure depicted in Formula I. The activity of the novel C6-nitrile substituted compounds were tested in a previously described cellular assay of MT-stabilization (Kovalevich, J., et al. (2016)). As summarized in Table 2. below, eighteen examples were synthesized and tested. In all cases, these compounds were confirmed to be active Class I triazolopyrimidines. […] Table 2 provides fold-changes in acetylated α-tubulin and total α-tubulin levels in QB1293 cells after 4 h incubation with test compounds at either 1 or 10 μM. Data are expressed as the fold-change relative to vehicle-treated cells. *p<0.05 and **p<0.01 by one-way ANOVA.
(§3) Compounds produced according to the preceding synthetic schemes were for microtubule stabilization. Fold-changes in acetylated α-tubulin (AcTub) and α-tubulin (α-Tub) levels in QB1293 cells after 4 h incubation with test compounds at either 1 or 10 μM. Reported values for AcTub and α-Tub represent the fold-change over control (DMSO)-treated cells (*p<0.05 and **p<0.01 by one-way ANOVA); numbers in parentheses represent the fold-change of AcTub over positive control-treated cells (i.e., 100 nM of cevipabulin). Changes of +/−15% of control are deemed to be within the day-to-day assay variability and non-significant.
Background: In an ELISA, binding on a coated surface is turned into a signal by an enzyme label.

The subject of the next data set is acetylated α-tubulin. The data set is described as follows: cell-based assay of MT-stabilization: acetylated α-tubulin in QBI293 cell lysates by ELISA. The following applies: for fold induction at 1 µM: QBI293. As for the experimental part: as §1, §2, §3
Data set [1] can be described thus: Plasma and brain compound determinations (LC-MS/MS). In kind it is in vivo. To be noted: CD1 mice, 2.5 mg/kg each, one hour after dosing; for concentration at 1 h / Kp at 1 h: CD1, mouse, 2.5 mg/kg. How it is done:
CD1 mice (n=3) were dosed concurrently with CNDR-51990 and CNDR-51993 (representing a 1:1 mixture of two diastereoisomers, 52017 (67) and 52016 (68)) at 2.5 mg/kg each). One hour after dosing, mice were euthanized and blood collected, followed by perfusion with saline. Mouse brains were homogenized in 10 mM ammonium acetate, pH 5.7 (1:2; w/v) using a handheld sonic homogenizer. Mouse plasma was obtained from blood that was collected into a 1.5 ml tube containing 0.5M EDTA solution and which was centrifuged for 10 minutes at 4500 g at 4° C. Aliquots (50 μl) of brain homogenates or plasma were mixed with 0.2 ml of acetonitrile, centrifuged at 15,000×g, and the resulting supernatant was used for subsequent LC-MS/MS analysis. The LC-MS/MS analysis was conducted by Inotiv, Inc., utilizing methods essentially as previously described (Lou et al., J. Med. Chem. 57:6116-27, 2014).

Setting [2] is: dosed concurrently, individual animals 1-3.
[3] abbreviates: QBI293, 4 h, 4 h incubation, 1 μM compound, relative to vehicle-treated cells, read-out: α-Tub 1 μM (fold-change in total α-tubulin).
[4] abbreviates: QBI293, 4 h, 4 h incubation, 10 μM compound, relative to vehicle-treated cells, read-out: α-Tub 10 μM (fold-change in total α-tubulin).
Setting [5] is: QB1293 cells, 4 h incubation, 1 μM compound, relative to vehicle-treated cells, *p<0.05, **p<0.01, read-out: AcTub l μM (fold-change in acetylated α-tubulin).
[6] abbreviates: Table 4, QB1293 cells, 4 h, 1 μM, *p<0.05, **p<0.01, read-out: AcTub 1 μM (fold-change over control (DMSO)-treated cells).
The mark [7] stands for this setting: QBI293, 4 h, Table 4, 4 h, 1 μM, read-out: α-Tub l μM (fold-change over control (DMSO)-treated cells).
The mark [8] stands for this setting: QBI293, 4 h, Table 4, 4 h, 10 μM, read-out: α-Tub 10 μM (fold-change over control (DMSO)-treated cells).

Regarding “4-(5-chloro-7-(piperidin-1-yl)-[1,2,4]triazolo[1,5-a]pyrimidin-6-yl)-3,5-difluorobenzonitrile [Compound 74]”, the “α-Tub 1 μM (fold-change in total α-tubulin)” value with total α-tubulin (4 h incubation, 1 μM compound, relative to vehicle-treated cells) was 0.98 +/− 0.02 fold-change. For the same compound, the “α-Tub 10 μM (fold-change in total α-tubulin)” value with total α-tubulin (4 h incubation, 10 μM compound, relative to vehicle-treated cells) is reported as 0.95 +/− 0.03 fold-change. Also, in the data set with acetylated α-tubulin (Table 2, triazolopyrimidine MT-activity class), the Class came to 1.

As to `CC(C)[C@@H](C)Nc1c(-c2ccc(C#N)cc2F)c(Cl)nc2ncnn12` [CNDR-51993, (R)-4-(5-chloro-7-((3-methylbutan-2-yl)amino)-[1,2,4]triazolo[1,5-a]pyrimidin-6-yl)-3-fluorobenzonitrile], the concentration at 1 h worked out at 209 ng/g in data set [1] (brain, dosed concurrently, individual animals 1-3, read-out: Brain Concentration); 225 ng/g in data set [1] (brain, dosed concurrently, mean, n=3, read-out: Brain Concentration, Mean); 242 ng/mL in data set [1] (plasma, dosed concurrently, individual animals 1-3, read-out: Plasma Concentration); 206 ng/mL in data set [1] (plasma, dosed concurrently, mean, n=3, read-out: Plasma Concentration, Mean). For the same compound, the Kp at 1 h in data set [1] (brain, individual animals 1-3, read-out: Brain/Plasma) came out at 0.86; in data set [1] (brain, mean, n=3, read-out: Brain/Plasma, Mean), 1.09. Also, the “Brain Concentration” value in data set [1] (setting [2]) is 211 ng/g and 254 ng/g. Also, in data set [1] (setting [2]), the “Plasma Concentration” value is 186 ng/mL and 190 ng/mL. Moreover, the Brain/Plasma in data set [1] (individual animals 1-3) was 1.13 and 1.34.

Consider `CC(C)[C@@H](Nc1c(-c2c(F)cc(C#N)cc2F)c(Cl)nc2ncnn12)C(F)(F)F` [Compound 62, (R)-4-(5-chloro-7-((1,1,1-trifluoro-3-methylbutan-2-yl)amino)-[1,2,4]triazolo[1,5-a]pyrimidin-6-yl)-3,5-difluorobenzonitrile], for which the fold induction at 1 µM turned out to be 1.02 in the data set on total α-tubulin (setting [3]) and 0.99 ± 0.06 with acetylated α-tubulin (setting [5]). The fold induction at 10 µM in the data set on total α-tubulin (setting [4]) was determined as 1.01.

For `CC(C)[C@@H](C)Nc1c(-c2ccc(C#N)cc2F)c(Cl)nc2ncnn12` [Compound 67, (R)-4-(5-chloro-7-((3-methylbutan-2-yl)amino)-[1,2,4]triazolo[1,5-a]pyrimidin-6-yl)-3-fluorobenzonitrile], the fold induction at 1 µM in the data set with total α-tubulin (setting [3]) is 0.99. For the same compound, in the data set on total α-tubulin (setting [4]), the fold induction at 10 µM was found to be 0.93. In the data set with acetylated α-tubulin (QB1293 cells, 4 h incubation, 1 μM compound, relative to vehicle-treated cells, *p<0.05, **p<0.01, listed as 52017 (67)), the “AcTub l μM (fold-change in acetylated α-tubulin)” value is on record as 2.79 +/− 1.11 fold-change.

With `N#Cc1cc(F)c(-c2c(Cl)nc3ncnn3c2N2CCCCC2)c(F)c1` [Compound 73], the fold induction at 1 µM in the data set with total α-tubulin (setting [3]) and in the data set on acetylated α-tubulin (setting [5]) was 1 in each case. In the data set on total α-tubulin (setting [4]), the fold induction at 10 µM stood at 1.07.

`C[C@@H](Nc1c(-c2c(F)cc(C#CCN(C)C)cc2F)c(Cl)nc2ncnn12)C(C)(C)C` [TAL-555, (R)-5-chloro-6-(4-(3-(dimethylamino)prop-1-yn-1-yl)-2,6-difluorophenyl)-N-(3,3-dimethylbutan-2-yl)-[1,2,4]triazolo[1,5-a]pyrimidin-7-amine]: the fold induction at 1 µM is 1 with total α-tubulin (QBI293, Table 4, 4 h, 1 μM, read-out: α-Tub l μM (fold-change over control (DMSO)-treated cells)) and 1.36 in the data set on acetylated α-tubulin (setting [6]). Besides, the fold induction at 10 µM in the data set on total α-tubulin (QBI293, Table 4, 4 h, 10 μM, read-out: α-Tub 10 μM (fold-change over control (DMSO)-treated cells)) turned out to be 0.84.

As for `CC(C)[C@@H](C)Nc1c(-c2c(F)cc(C#CCCCO)cc2F)c(Cl)nc2ncnn12` [TAL-599, (R)-5-(4-(5-chloro-7-((3-methylbutan-2-yl)amino)-[1,2,4]triazolo[1,5-a]pyrimidin-6-yl)-3,5-difluorophenyl)pent-4-yn-1-ol], the fold induction at 1 µM worked out at 1 with total α-tubulin (setting [7]) and 2.6 in the data set with acetylated α-tubulin (setting [6]).

Take `C[C@H](Nc1c(-c2c(F)cc(I)cc2F)c(Cl)nc2ncnn12)C(F)(F)F` [TAL-640]: the fold induction at 1 µM worked out at 1.01 with total α-tubulin (setting [7]) and 1.9 in the data set with acetylated α-tubulin (setting [6]). The fold induction at 10 µM with total α-tubulin (setting [8]) came out at 0.93.

Regarding `Cc1nc2nc(Cl)c(-c3c(F)cc(C#CCCO)cc3F)c(N(C)[C@H](C)C(C)C)n2n1` [TAL-665, (R)-4-(4-(5-chloro-2-methyl-7-(methyl(3-methylbutan-2-yl)amino)-[1,2,4]triazolo[1,5-a]pyrimidin-6-yl)-3,5-difluorophenyl)but-3-yn-1-ol], the results for the fold induction at 1 µM in the data set with total α-tubulin (setting [7]) and in the data set on acetylated α-tubulin (setting [6]) were 0.91 and 1.05, respectively. For the same compound, the fold induction at 10 µM with total α-tubulin (setting [8]) is 0.96.
